What all share (format): in vivo
Data set [1] concerns Albino rats of Wistar strain. The data set can be described thus: Evaluation of ulcerogenicity index (pylorus ligation). Also noted: scale not given here. The following applies: mean ± SD (n = 6). The method, then:
The synthesized compounds were evaluated for analgesic, anti-inflammatory, and ulcerogenic index. […] The test compounds and the standard drugs were administered in the form of a suspension (1% carboxymethyl cellulose as a vehicle) by oral route for analgesic and anti-inflammatory but for ulcerogenicity studies by intraperitoneally as suspension in 10% v/v Tween-20. Each group consisted of six animals. The animals were procured from the C. L. Baid Metha College of pharmacy, Chennai, and were maintained in colony cages at 25 ±2°C, relative humidity of 45-55%, under a 12-h light and dark cycle; they were fed standard animal feed. All the animals were acclimatized for a week before use. The Institutional Animal Ethics Committee approved the protocol adopted for the experimentation of animals. Ulceration in rats was induced as described by Goyal et al. Albino rats of Wistar strain weighing 150-200 g of either sex were divided into various groups each of six animals.[16] Control group of animals was administered only with 10% v/v Tween 80 suspension intraperitonially. One group was administered with aspirin (German Remedies) intraperitoneally at a dose of 200 mg/kg once daily for 3 days. The remaining group of animals was administered with test compounds intraperitoneally at a dose of 20 mg/kg. On fourth day, Pylorus was ligated as per the method of Shay et al.[17] Animals were fasted for 36 h before the pylorus ligation procedure. Four hours after the ligation, animals were sacrificed. The stomach was removed and opened along with the greater curvature. Ulcer index was determined by the method of Ganguly and Bhatnagar.[18]

For another data set, the system named is Wistar albino mice. The data set can be described thus: Analgesic activity, tail-flick technique. The following applies: mean ± SD (n = 6). The method, then: (§1) The synthesized compounds were evaluated for analgesic, anti-inflammatory, and ulcerogenic index. […] The test compounds and the standard drugs were administered in the form of a suspension (1% carboxymethyl cellulose as a vehicle) by oral route for analgesic and anti-inflammatory but for ulcerogenicity studies by intraperitoneally as suspension in 10% v/v Tween-20. Each group consisted of six animals. The animals were procured from the C. L. Baid Metha College of pharmacy, Chennai, and were maintained in colony cages at 25 ±2°C, relative humidity of 45-55%, under a 12-h light and dark cycle; they were fed standard animal feed. All the animals were acclimatized for a week before use. The Institutional Animal Ethics Committee approved the protocol adopted for the experimentation of animals.
The analgesic activity was performed by tail-flick technique using Wistar albino mice (25-35 g) of either sex selected by the random sampling technique.[1314] Diclofenac sodium at a dose level of 10 mg/kg and 20 mg/kg was administered orally as reference drug for comparison. The test compounds at two dose levels (10, 20 mg/kg) were administered orally. The reaction time was recorded at 30 min, 1, 2, and 3 h after the treatment, and cut-off time was 10 s. The percent analgesic activity (PAA) was calculated by the following formula, where T1 is the reaction time (s) before treatment, and T2 is the reaction time (s) after treatment.

The test system of data set [2] is carrageenan-induced paw edema in rats. The data set can be described thus: Anti-inflammatory activity, carrageenan-induced paw edema test. The note with it: for Percent anti-inflammatory activity (percent inhibition of paw edema): mean ± SD (n = 6). The procedure: as §1
Anti-inflammatory activity was evaluated by carrageenan-induced paw edema test in rats.[15] Diclofenac sodium 10, 20 mg/kg was administered as a standard drug for comparison. The test compounds were administered at two dose levels (10 mg/kg, 20 mg/kg). The paw volumes were measured using the mercury displacement technique with the help of a plethysmograph (Model PLYAN; Buxco, USA) immediately before and 30 min, 1, 2, and 3 h after carrageenan injection. The percent inhibition of paw edema was calculated using the following formula.
Percent inhibition I = 100 1− (a−x) / (b−y)
Where x is the mean paw volume of rats before the administration of carrageenan and test compounds or reference compound (test group), a is the mean paw volume of rats after the administration of carrageenan in the test group (drug treated), b is the mean paw volume of rats after the administration of carrageenan in the control group, y is the mean paw volume of rats before the administration of carrageenan in the control group.
For orientation: The carrageenan paw model is a standard test of acute inflammation.

The mark [3] stands for this setting: test compounds 20 mg/kg intraperitoneally, pylorus ligated on fourth day.
[4] abbreviates: 10 mg/kg oral, 30 min after treatment.
Where [5] appears, read: 10 mg/kg oral, 1 h after treatment.
Setting [6] is: 10 mg/kg oral, 2 h after treatment.
Setting [7] is: 10 mg/kg oral, 3 h after treatment.
Where [8] appears, read: 20 mg/kg oral, 30 min after treatment.
Setting [9] is: 20 mg/kg oral, 1 h after treatment.
The mark [10] stands for this setting: 20 mg/kg oral, 2 h after treatment.
[11] abbreviates: 20 mg/kg oral, 3 h after treatment.
[12] abbreviates: 10 mg/kg oral, 30 min after carrageenan.
Setting [13] is: 10 mg/kg oral, 1 h after carrageenan.
Setting [14] is: 10 mg/kg oral, 2 h after carrageenan.
[15] abbreviates: 10 mg/kg oral, 3 h after carrageenan.
Setting [16] is: 20 mg/kg oral, 30 min after carrageenan.
[17] abbreviates: 20 mg/kg oral, 1 h after carrageenan.
The mark [18] stands for this setting: 20 mg/kg oral, 2 h after carrageenan.
Setting [19] is: 20 mg/kg oral, 3 h after carrageenan.

The record followed here is paper PMC3021692, “Synthesis and Pharmacological Evaluation of Novel Schiff Base Analogues of 3-(4-amino) Phenylimino) 5-fluoroindolin-2-one” (Journal of Young Pharmacists : JYP, 2010).

The structures appear in SMILES notation.

In data set [1] (setting [3]), `O=C1Nc2ccc(F)cc2C1=Nc1ccc(N=Cc2ccc(O)cc2)cc1` [Compound N10] registered a Ulcer index of 0.81 ± 1.18. The Percent analgesic activity with Wistar albino mice (setting [4]) is 43 ± 1.55 %; with Wistar albino mice (setting [5]), 46 ± 1.72 %; with Wistar albino mice (setting [6]), 49 ± 1.52 %; with Wistar albino mice (setting [7]) it was 38 ± 1.92 %; in the data set on Wistar albino mice (setting [8]), 48 ± 1.56 %; in the data set with Wistar albino mice (setting [9]), 52 ± 1.96 %. In addition, the values for the Percent analgesic activity in the data set on Wistar albino mice (setting [10]) and in the data set with Wistar albino mice (setting [11]) were 58 ± 1.16 % and 42 ± 1.43 %, respectively. Besides, the “Percent anti-inflammatory activity (percent inhibition of paw edema)” value was found to be 43 ± 1.55 % in data set [2] (setting [12]); 49 ± 1.72 % in data set [2] (setting [13]); 54 ± 1.52 % in data set [2] (setting [14]); 39 ± 1.92 % in data set [2] (setting [15]); 48 ± 1.56 % in data set [2] (setting [16]); 54 ± 1.65 % in data set [2] (setting [17]). The results for the “Percent anti-inflammatory activity (percent inhibition of paw edema)” value in data set [2] (setting [18]) and in data set [2] (setting [19]) were 58 ± 1.16 % and 42 ± 1.43 %, respectively.

For `O=C(O)Cc1ccccc1Nc1c(Cl)cccc1Cl` [Diclofenac, Diclofenac sodium, reference compound], the Ulcer index in data set [1] (diclofenac reference, dose not given) amounted to 1.65 ± 0.48. Moreover, the Percent analgesic activity in the data set on Wistar albino mice (setting [4]) amounted to 37 ± 1.69 %; with Wistar albino mice (setting [5]), 43 ± 1.42 %; in the data set on Wistar albino mice (setting [6]), 45 ± 0.92 %; with Wistar albino mice (setting [7]), 33 ± 0.96 %; with Wistar albino mice (setting [8]), 46 ± 0.95 %; with Wistar albino mice (setting [9]), 55 ± 1.16 %. Moreover, the Percent analgesic activity in the data set on Wistar albino mice (setting [10]) stood at 62 ± 1.49 %; in the data set with Wistar albino mice (setting [11]), 39 ± 1.13 %. For the same compound, the “Percent anti-inflammatory activity (percent inhibition of paw edema)” value amounted to 32 ± 0.69 % in data set [2] (setting [12]); 38 ± 1.42 % in data set [2] (setting [13]); 39 ± 1.97 % in data set [2] (setting [14]); 33 ± 0.93 % in data set [2] (setting [15]); 45 ± 1.65 % in data set [2] (setting [16]); 52 ± 0.96 % in data set [2] (setting [17]). Also, the entries for the “Percent anti-inflammatory activity (percent inhibition of paw edema)” value in data set [2] (setting [18]) and in data set [2] (setting [19]) were 60 ± 1.52 % and 39 ± 1.13 %, respectively.

As for `CC(=O)Oc1ccccc1C(=O)O` [Aspirin, aspirin, reference compound], the Ulcer index in data set [1] (aspirin 200 mg/kg intraperitoneally once daily for 3 days, pylorus ligated on fourth day) was 1.73 ± 0.39; in data set [1] (aspirin 200 mg/kg intraperitoneally once daily for 3 days, pylorus ligated on fourth day, listed as aspirin) it was 1.73 ± 0.41.

For `CCC(CC)=Nc1ccc(N=C2C(=O)Nc3ccc(F)cc32)cc1` [Compound N2], the Ulcer index in data set [1] (setting [3]) came out at 0.97 ± 1.53. Moreover, the Percent analgesic activity in the data set with Wistar albino mice (setting [4]) amounted to 50 ± 1.25 %; with Wistar albino mice (setting [5]), 56 ± 1.32 %; in the data set with Wistar albino mice (setting [6]) it was 60 ± 1.15 %; in the data set on Wistar albino mice (setting [7]) it was 45 ± 1.68 %; with Wistar albino mice (setting [8]) it was 57 ± 1.44 %; in the data set on Wistar albino mice (setting [9]), 60 ± 1.90 %. Further, the Percent analgesic activity in the data set on Wistar albino mice (setting [10]) is 64 ± 1.26 %; in the data set on Wistar albino mice (setting [11]) it was 50 ± 1.67 %. Besides, the “Percent anti-inflammatory activity (percent inhibition of paw edema)” value came out at 42 ± 1.25 % in data set [2] (setting [12]); 50 ± 1.38 % in data set [2] (setting [13]); 53 ± 1.15 % in data set [2] (setting [14]); 45 ± 1.68 % in data set [2] (setting [15]); 51 ± 1.44 % in data set [2] (setting [16]); 57 ± 1.72 % in data set [2] (setting [17]). Also, the results for the “Percent anti-inflammatory activity (percent inhibition of paw edema)” value in data set [2] (setting [18]) and in data set [2] (setting [19]) were 62 ± 1.26 % and 54 ± 1.67 %, respectively. The “Anti-inflammatory activity compared to reference standard diclofenac sodium (in words)” value in data set [2] (carrageenan-induced paw edema in rats) is recorded as “equipotent”.
